{"source": "patent US20160089348A1", "about": "“USE OF AN S1P RECEPTOR AGONIST” (priority 2009, published 2016)", "key": {"[1]": {"test_system": "patients with relapsing-remitting MS (RRMS)", "assay": "MRI lesion measures (Gd-enhancing, T2, T1 hypointense lesions) in clinical study of daily oral fingolimod vs placebo", "type": "in vivo, human", "conditions": "for T1 hypointense lesion volume, months 0-24 - % change, Mean ± SD / T1 hypointense lesion volume, months 0-24 - % change, Median (range) / T2 lesion volume, months 0-24 - % change, Mean ± SD / T2 lesion volume, months 0-24 - % change, Median (range) / Patients free from new or enlarged T2 lesions, months 0-24 - (%) / Patients free from new or enlarged T2 lesions, months 0-24 - no.: RRMS patients", "protocol": "Annualized relapse rate (ARR) over 24 months (primary endpoint) and time to disability progression (key secondary endpoint) is assessed in patients with relapsing-remitting MS (RRMS). Patients aged 18-55 years with an Expanded Disability Status Scale score 0-5.5, relapse in the previous year (or ≧2 in the previous 2 years) are randomized to daily oral fingolimod 1.25 mg or 0.5 mg, or placebo. […] The brain volume changes for months 0 to 12 is measured using SIENA software."}, "[2]": {"test_system": "patients with relapsing-remitting MS (RRMS)", "assay": "Brain volume change (brain atrophy) by MRI using SIENA software in clinical study of daily oral fingolimod vs placebo", "type": "in vivo, human", "conditions": "for Brain volume, Percent change from Month 12 to Month 24, Mean (SD) / Brain volume, Percent change from Month 12 to Month 24, Median / Brain volume, Percent change from baseline to Month 24, Mean (SD) / Brain volume, Percent change from baseline to Month 24, Median / Brain volume, Percent change from baseline to Month 12, Mean (SD) / Brain volume, Percent change from baseline to Month 12, Median / Brain volume, Percent change from baseline to Month 6, Mean (SD) / Brain volume, Percent change from baseline to Month 6, Median: RRMS patients", "protocol": "Annualized relapse rate (ARR) over 24 months (primary endpoint) and time to disability progression (key secondary endpoint) is assessed in patients with relapsing-remitting MS (RRMS). Patients aged 18-55 years with an Expanded Disability Status Scale score 0-5.5, relapse in the previous year (or ≧2 in the previous 2 years) are randomized to daily oral fingolimod 1.25 mg or 0.5 mg, or placebo. […]"}, "[3]": {"conditions": "fingolimod 0.5 mg daily oral, N = 346 with MRI data"}, "[4]": {"conditions": "fingolimod 0.5 mg daily oral, N = 368 with MRI data"}, "[5]": {"conditions": "fingolimod 0.5 mg daily oral, N = 425"}, "[6]": {"conditions": "fingolimod 1.25 mg daily oral, N = 317 with MRI data"}, "[7]": {"conditions": "fingolimod 1.25 mg daily oral, N = 343 with MRI data"}, "[8]": {"conditions": "fingolimod 1.25 mg daily oral, N = 429"}, "[9]": {"conditions": "both fingolimod groups (1.25 mg, 0.5 mg), at 6, 12 and 24 months"}, "[10]": {"conditions": "FTY720 0.5 mg daily oral, n 356"}, "[11]": {"conditions": "FTY720 0.5 mg daily oral, n 357"}, "[12]": {"conditions": "FTY720 0.5 mg daily oral, n 383"}, "[13]": {"conditions": "FTY720 0.5 mg daily oral, n 395"}, "[14]": {"conditions": "FTY720 1.25 mg daily oral, n 327"}, "[15]": {"conditions": "FTY720 1.25 mg daily oral, n 334"}, "[16]": {"conditions": "FTY720 1.25 mg daily oral, n 371"}, "[17]": {"conditions": "FTY720 1.25 mg daily oral, n 384"}, "[18]": {"conditions": "fingolimod-treated patients, baseline to month 24"}}}
{"compound": "CCCCCCCCc1ccc(CCC(N)(CO)CO)cc1.Cl", "note": "[fingolimod, 2-amino-2-[2-(4-octylphenyl)ethyl]propane-1,3-diol]", "values": [{"measurement": "T1 hypointense lesion volume, months 0-24 - % change, Mean ± SD", "setting": "[1]; [3]", "value": "8.8 ± 76.27", "unit": "%"}, {"measurement": "T1 hypointense lesion volume, months 0-24 - % change, Median (range)", "setting": "[1]; [3]", "value": "0.00 (−100.0-1037.1) %"}, {"measurement": "T2 lesion volume, months 0-24 - % change, Mean ± SD", "setting": "[1]; [4]", "value": "10.6 ± 103.46", "unit": "%"}, {"measurement": "T2 lesion volume, months 0-24 - % change, Median (range)", "setting": "[1]; [4]", "value": "−1.69 (−100.0-1828.5) %"}, {"measurement": "Patients free from new or enlarged T2 lesions, months 0-24 - (%)", "setting": "[1]; [5]", "value": 50.5, "unit": "%"}, {"measurement": "Patients free from new or enlarged T2 lesions, months 0-24 - no.", "setting": "[1]; [5]", "value": 187}, {"measurement": "T1 hypointense lesion volume, months 0-24 - % change, Mean ± SD", "setting": "[1]; [6]", "value": "12.2 ± 85.49", "unit": "%"}, {"measurement": "T1 hypointense lesion volume, months 0-24 - % change, Median (range)", "setting": "[1]; [6]", "value": "−0.20 (−100.0-888.4) %"}, {"measurement": "T2 lesion volume, months 0-24 - % change, Mean ± SD", "setting": "[1]; [7]", "value": "1.6 ± 30.71", "unit": "%"}, {"measurement": "T2 lesion volume, months 0-24 - % change, Median (range)", "setting": "[1]; [7]", "value": "−3.10 (−68.2-221.5) %"}, {"measurement": "Patients free from new or enlarged T2 lesions, months 0-24 - (%)", "setting": "[1]; [8]", "value": 51.9, "unit": "%"}, {"measurement": "Patients free from new or enlarged T2 lesions, months 0-24 - no.", "setting": "[1]; [8]", "value": 175}, {"measurement": "Proportions of patients free from new or enlarged T2 lesions versus placebo", "setting": "[1]; both fingolimod doses, over 24 months", "value": "greater proportions of patients are free from these lesions"}, {"measurement": "Gd-enhancing lesions versus placebo group", "setting": "[1]; [9]", "value": "significantly fewer Gd-enhancing lesions than those in the placebo group"}, {"measurement": "Patients free from Gd-enhancing lesions versus placebo", "setting": "[1]; [9]", "value": "proportionately more patients are free from Gd-enhancing lesions"}, {"measurement": "New or enlarged T2 lesions versus placebo", "setting": "[1]; fingolimod 0.5 mg or 1.25 mg, over 24 months", "value": "Fewer new or enlarged T2 lesions"}, {"measurement": "Volume of T2 lesions, change from baseline to month 24", "setting": "[1]; fingolimod-treated patients, increases with placebo", "value": "decreases"}, {"measurement": "Brain volume, Percent change from Month 12 to Month 24, Mean (SD)", "setting": "[2]; [10]", "value": "−0.370 (0.8073) %"}, {"measurement": "Brain volume, Percent change from Month 12 to Month 24, Median", "setting": "[2]; [10]", "value": "−0.340", "unit": "%"}, {"measurement": "Brain volume, Percent change from baseline to Month 24, Mean (SD)", "setting": "[2]; [11]", "value": "−0.843 (1.3120) %"}, {"measurement": "Brain volume, Percent change from baseline to Month 24, Median", "setting": "[2]; [11]", "value": "−0.670", "unit": "%"}, {"measurement": "Brain volume, Percent change from baseline to Month 12, Mean (SD)", "setting": "[2]; [12]", "value": "−0.500 (1.0509) %"}, {"measurement": "Brain volume, Percent change from baseline to Month 12, Median", "setting": "[2]; [12]", "value": "−0.380", "unit": "%"}, {"measurement": "Brain volume, Percent change from baseline to Month 6, Mean (SD)", "setting": "[2]; [13]", "value": "−0.224 (0.8131) %"}, {"measurement": "Brain volume, Percent change from baseline to Month 6, Median", "setting": "[2]; [13]", "value": "−0.140", "unit": "%"}, {"measurement": "Brain volume, Percent change from Month 12 to Month 24, Mean (SD)", "setting": "[2]; [14]", "value": "−0.423 (0.8284) %"}, {"measurement": "Brain volume, Percent change from Month 12 to Month 24, Median", "setting": "[2]; [14]", "value": "−0.380", "unit": "%"}, {"measurement": "Brain volume, Percent change from baseline to Month 24, Mean (SD)", "setting": "[2]; [15]", "value": "−0.885 (1.3857) %"}, {"measurement": "Brain volume, Percent change from baseline to Month 24, Median", "setting": "[2]; [15]", "value": "−0.700", "unit": "%"}, {"measurement": "Brain volume, Percent change from baseline to Month 12, Mean (SD)", "setting": "[2]; [16]", "value": "−0.438 (1.0792) %"}, {"measurement": "Brain volume, Percent change from baseline to Month 12, Median", "setting": "[2]; [16]", "value": "−0.300", "unit": "%"}, {"measurement": "Brain volume, Percent change from baseline to Month 6, Mean (SD)", "setting": "[2]; [17]", "value": "−0.209 (0.8649) %"}, {"measurement": "Brain volume, Percent change from baseline to Month 6, Median", "setting": "[2]; [17]", "value": "−0.120", "unit": "%"}, {"measurement": "Reduction in atrophy rate versus placebo", "setting": "[2]; [18]", "value": 30, "unit": "%"}, {"measurement": "Reduction in brain volume versus placebo group", "setting": "[2]; [18]", "value": "significantly less reduction in brain volume than those in the placebo group"}]}
